From ChEMBL document CHEMBL3392952, “Structure guided lead generation for M. tuberculosis thymidylate kinase (Mtb TMK): discovery of 3-cyanopyridone and 1,6-naphthyridin-2-one as potent inhibitors” (J Med Chem, 2015)
≈ marks a conversion by molar mass, not a printed value. Calls of active or inactive are those of the source. The calls are words filed in the database; no cut-off is given here.

How the values were obtained:
Thymidylate kinase = target: T1, Thymidylate kinase (Mycobacterium tuberculosis, UniProt P9WKE1); assay: Inhibition of Mycobacterium tuberculosis thymidylate kinase activity by pyruvate kinase-lactate dehydrogenase coupled assay
T1 sequence (P9WKE1 whole entry): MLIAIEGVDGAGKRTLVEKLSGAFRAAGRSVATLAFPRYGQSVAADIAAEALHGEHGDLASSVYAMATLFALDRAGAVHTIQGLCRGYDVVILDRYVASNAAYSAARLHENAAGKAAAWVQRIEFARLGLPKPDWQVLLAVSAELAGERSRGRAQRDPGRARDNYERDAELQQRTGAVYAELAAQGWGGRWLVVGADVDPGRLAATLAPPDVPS

[1] = tested on: Mycobacterium tuberculosis; assay: Antitubercular activity against Mycobacterium tuberculosis assessed as growth inhibition […] by standard microdilution method; format: functional
[2] = target: T2, Thymidylate kinase (Homo sapiens) (UniProt P23919); assay: Inhibition of human thymidylate kinase assessed as […] up to 200 uM
T2 sequence (whole entry): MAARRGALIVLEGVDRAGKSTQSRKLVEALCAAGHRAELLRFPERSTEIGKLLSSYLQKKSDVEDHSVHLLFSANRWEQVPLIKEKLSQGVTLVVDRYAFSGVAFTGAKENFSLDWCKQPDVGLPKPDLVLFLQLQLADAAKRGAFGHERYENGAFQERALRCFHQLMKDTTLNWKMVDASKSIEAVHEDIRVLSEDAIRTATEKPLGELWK

[3] = Dissociation constant, pKa of the compound; format: physicochemical
Escherichia coli = assay: Inhibition of Escherichia coli thymidylate kinase
Staphylococcus aureus = assay: Inhibition of Staphylococcus aureus thymidylate kinase
Haemophilus influenzae = assay: Inhibition of Haemophilus influenza thymidylate kinase

| SMILES | IC50 (Thymidylate kinase) [nM] | MIC [1] [µg/mL] | also measured |
| --- | --- | --- | --- |
| COc1cccc(-c2cc(-c3ccc(N)cc3)c(C#N)c(=O)[nH]2)c1 | 1010 |  |  |
| COc1cccc(-c2nc(SC)c(C#N)c(=O)[nH]2)c1 | 8000 |  |  |
| COc1cccc(-c2cc(-c3cccnc3)c(C#N)c(=O)[nH]2)c1 | 2630 |  |  |
| COc1ccccc1-c1cc(SC)c(C#N)c(=O)[nH]1 | > 50000 |  |  |
| CSc1cc(-c2ccccc2)nc(O)c1C#N | 1900 |  |  |
| CCc1cc2[nH]c(=O)c(C#N)c(-c3ccccc3)c2c(C)n1 | 350 | > 32 |  |
| CCNC(=O)Nc1ccc(-c2cc(-c3cccc(OC)c3)[nH]c(=O)c2C#N)cc1 | 250 |  | Activity [2]: inactive |
| CSc1cc(-c2cccs2)[nH]c(=O)c1C#N | 3600 |  |  |
| COc1cccc(-c2cc(-c3ccc(NC(C)=O)cc3)c(C#N)c(=O)[nH]2)c1 | 430 |  |  |
| COc1cccc(-c2cc(SC)c(C#N)c(=O)[nH]2)c1 | 1500 |  | Activity [2]: inactive |
| COc1ccc(-c2cc(SC)c(C#N)c(=O)[nH]2)cc1 | 7700 |  |  |
| CSc1cc(-c2ccccn2)[nH]c(=O)c1C#N | 18000 |  |  |
| CSc1cc(-c2cccc(Cl)c2)[nH]c(=O)c1C(N)=O | 14300 |  |  |
| CS(=O)(=O)NC(=O)c1ccc(-c2c3c([nH]c(=O)c2C#N)-c2ccccc2OC3)cc1 | 5 | > 32 | Activity [2]: inactive; pKa [3]: 3.9 |
| CSc1cc(-c2cccs2)oc(=O)c1C#N | > 50000 |  |  |
| CC(C)c1ccc(COc2cccc(-c3cc(-c4ccc(C(=O)O)cc4)c(C#N)c(=O)[nH]3)c2)cc1 | 6 |  |  |
| C[S+]([O-])c1cc(-c2cccc(OC(F)(F)F)c2)[nH]c(=O)c1C#N (stereo not given) | 240 | 8 (≈ 23.4 µM) | Activity [2]: inactive; Activity (Escherichia coli): inactive; Activity (Staphylococcus aureus): inactive; Activity (Haemophilus influenzae): inactive |
| COc1cccc(-c2cc(-c3cccc(N)c3)c(C#N)c(=O)[nH]2)c1 | 1200 |  |  |
| C[S+]([O-])c1cc(-c2cccc(Br)c2)[nH]c(=O)c1C#N (stereo not given) | 140 | 4 (≈ 11.9 µM) | Activity (Escherichia coli): inactive; Activity (Staphylococcus aureus): inactive; Activity (Haemophilus influenzae): inactive |
| CC(C)c1ccc(COc2cccc3c2CCc2c-3[nH]c(=O)c(C#N)c2-c2ccc(C(=O)O)cc2)cc1 | 1 | > 32 | pKa [3]: 4.4 |
| COc1cccc(-c2cc(-c3cccc(C(=O)O)c3)c(C#N)c(=O)[nH]2)c1 | 2730 |  |  |
| N#Cc1c(-c2ccc(C(=O)O)cc2)c2c([nH]c1=O)-c1cccc(-c3cn[nH]c3)c1CC2 | 2 | > 32 | pKa [3]: 4.4 |

| SMILES | IC50 (Thymidylate kinase) [nM] | MIC [1] [µg/mL] | also measured |
| --- | --- | --- | --- |
| N#Cc1c(-c2ccc(C(=O)NS(=O)(=O)c3ccccc3)cc2)c2c([nH]c1=O)-c1ccccc1OC2 | 2 | > 32 | pKa [3]: 5 |
| CCc1cc2[nH]c(=O)c(C#N)c(-c3ccc(NS(C)(=O)=O)cc3)c2c(C)n1 | 200 | > 32 |  |
| CCc1cc2[nH]c(=O)c(C)c(C)c2c(CC)n1 | 133000 |  |  |
| CC(C)CCOc1cccc(-c2cc([S+](C)[O-])c(C#N)c(=O)[nH]2)c1 (stereo not given) | 330 | 4 (≈ 11.6 µM) |  |
| C[S+]([O-])c1cc(-c2cccs2)[nH]c(=O)c1C#N (stereo not given) | 820 | 12 (≈ 45.4 µM) |  |
| CCNC(=O)Nc1ccc(-c2c3c([nH]c(=O)c2C#N)-c2cccc(OC)c2CC3)cc1 | 17 | > 32 |  |
| CS(=O)(=O)c1cc(-c2cccc(Br)c2)[nH]c(=O)c1 | > 25000 | > 32 |  |
| COc1cccc(-c2cc(-c3ccc(C(=O)O)cc3)c(C#N)c(=O)[nH]2)c1 | 420 |  |  |
| N#Cc1c(-c2ccc(C(=O)O)cc2)c2c([nH]c1=O)-c1ccccc1CC2 | 6 |  |  |
| CC(C)c1ccc(COc2cccc(-c3cc([S+](C)[O-])c(C#N)c(=O)[nH]3)c2)cc1 (stereo not given) | 32 | 2 (≈ 4.92 µM) |  |
| CS(=O)(=O)c1cc(-c2cccc(OCc3cccc(Cl)c3)c2)[nH]c(=O)c1C#N | 22 | 4 (≈ 9.64 µM) |  |
| CCCc1cc2[nH]c(=O)ccc2c(C)n1 | 590000 |  |  |
| N#Cc1c(-c2ccc(C(=O)O)cc2)c2c([nH]c1=O)-c1cccc(O)c1CC2 | 3 | > 32 | Activity [2]: inactive; pKa [3]: 4.4 |
| CCCc1cc2[nH]c(=O)c(C#N)c(-c3ccccc3)c2c(C)n1 | 1000 | > 32 |  |
| CS(=O)(=O)c1c2c([nH]c(=O)c1C#N)-c1ccccc1OC2 | 30000 | 32 (≈ 106 µM) |  |
| COc1cccc(-c2cc(-c3ccc(C(=O)O)cc3)c(C)c(=O)[nH]2)c1 | 1200 |  |  |
| CS(=O)(=O)c1cc(-c2cccc(Br)c2)[nH]c(=O)c1C#N | 100 | 8 (≈ 22.7 µM) |  |
| Cc1nccc2nc(O)c(C#N)cc12 | 634000 |  |  |
| COc1cccc2c1CCc1c-2[nH]c(=O)c(C#N)c1-c1ccc(C(=O)O)cc1 | 5 | > 32 | pKa [3]: 4.4 |
| CSc1cc(-c2cccc(Cl)c2)[nH]c(=O)c1C#N | 1900 |  |  |
| CCCc1cc2[nH]c(=O)c(C#N)c(-c3ccc(NS(C)(=O)=O)cc3)c2c(C)n1 | 2100 | > 32 |  |
